# Reference: BindingDB's records for patent US20250129067 (Progentos Therapeutics, 2025)
# Target: Platelet-derived growth factor receptor alpha (Homo sapiens, UniProt P16234)
# Experiment: PDGFRα Kinase Assay
# Experimental: The PDGFRα enzyme assays were conducted per the manufacturer's directions (Promega PDGFRα Kinase Enzyme System and ADP Glo Assay Cat #V8011). […] 20 ng of purified PDGFRα protein was added to the test article. […] ADP-Glo was added to halt the kinase reaction and deplete the remaining ATP. Kinase detection reagent, containing luciferase and luciferin, was used to convert the ADP signal into luminescence. Luminescence was measured using a Molecular Devices Spectramax ID5 and compared to a standard curve to determine kinase activity. IC50s were calculated using Prism 9, Graphpad software.
# Chain of Platelet-derived growth factor receptor alpha (P16234 whole entry): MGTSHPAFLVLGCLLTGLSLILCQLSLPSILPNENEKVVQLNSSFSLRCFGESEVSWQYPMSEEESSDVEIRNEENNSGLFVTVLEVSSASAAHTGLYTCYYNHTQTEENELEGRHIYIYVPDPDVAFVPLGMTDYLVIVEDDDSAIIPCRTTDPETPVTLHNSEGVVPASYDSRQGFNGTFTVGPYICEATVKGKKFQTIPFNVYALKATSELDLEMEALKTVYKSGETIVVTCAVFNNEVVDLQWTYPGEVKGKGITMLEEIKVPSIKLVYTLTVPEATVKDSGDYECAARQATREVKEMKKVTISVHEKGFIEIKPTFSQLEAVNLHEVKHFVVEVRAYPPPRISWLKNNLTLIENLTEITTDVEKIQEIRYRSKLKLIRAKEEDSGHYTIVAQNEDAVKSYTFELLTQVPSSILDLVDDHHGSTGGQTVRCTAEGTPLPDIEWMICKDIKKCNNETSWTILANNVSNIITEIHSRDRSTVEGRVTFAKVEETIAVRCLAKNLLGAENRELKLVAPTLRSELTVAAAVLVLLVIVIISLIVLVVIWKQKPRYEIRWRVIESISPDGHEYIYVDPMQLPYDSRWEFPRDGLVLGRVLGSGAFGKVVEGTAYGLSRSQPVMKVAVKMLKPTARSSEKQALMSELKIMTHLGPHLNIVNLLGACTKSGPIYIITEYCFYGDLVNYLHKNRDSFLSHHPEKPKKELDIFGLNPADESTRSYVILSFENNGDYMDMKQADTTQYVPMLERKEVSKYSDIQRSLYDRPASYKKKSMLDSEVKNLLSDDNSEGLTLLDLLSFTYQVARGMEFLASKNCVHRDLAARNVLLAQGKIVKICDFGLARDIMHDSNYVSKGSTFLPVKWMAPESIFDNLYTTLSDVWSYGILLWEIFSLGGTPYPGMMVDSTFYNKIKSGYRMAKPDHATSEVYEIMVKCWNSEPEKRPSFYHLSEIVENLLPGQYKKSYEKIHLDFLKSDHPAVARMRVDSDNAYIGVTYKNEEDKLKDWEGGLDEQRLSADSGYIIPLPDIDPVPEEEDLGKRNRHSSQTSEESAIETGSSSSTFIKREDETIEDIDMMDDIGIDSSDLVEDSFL
row,IC50 [µM],SMILES
1,> 10,CN(CCCN(C)c1cnn2cc(-c3cnn(C)c3)ccc12)c1ncc(Cc2ccccc2)cn1
2,5.94,"Cn1cc(-c2ccn3c(N4CCN(C(=O)OC(C)(C)C)CC4)cnc3n2)cn1 [US20250129067, Compound 87]"
3,0.107,"Cn1cc(-c2ccc3c(N4CCN(c5ncc(C(O)Cc6ccccc6)cn5)CC4)cnn3c2)cn1 (stereo not drawn) [US20250129067, Compound 167]"
